Test [1] concerns BJ. Briefly: cytotoxicity toward BJ-TERT-LT-ST fibroblasts, dose response, cell-based, RAS-independent, luminescence (AID 1935).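 Note: BJ fibroblasts immortalized with TERT plus LT and ST oncogenes.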 To be noted: Homo sapiens. The class given is functional.
For test [2], the system named is BJ. Put plainly: cells. It counts as functional, cell-based. To be noted: Homo sapiens.
A short description of test [3]: cytotoxicity toward DRD oncogenic fibroblasts, dose response, cell-based, non-viral oncogenic, luminescence (AID 1934). It counts as functional. The following applies: Homo sapiens.
For test [4], the system named is BJ. Briefly: cytotoxicity toward BJ-TERT fibroblasts, dose response, cell-based, RAS-independent, luminescence (AID 1933). The class given is functional. To be noted: Homo sapiens.
A short description of test [5]: inhibition of ADP-Glo detection reagents, dose response, artefact control for CDK5 inhibitor project, biochemical, luminescence, cherry-picked samples, set 2 (AID 504546). The class given is functional.
The target of test [6] is Luciferin 4-monooxygenase (Photinus pyralis, UniProt P08659). Put plainly: firefly luciferase enzyme inhibitors, dose response, biochemical, luminescence (AID 1891).
Chain of Luciferin 4-monooxygenase (P08659 whole entry): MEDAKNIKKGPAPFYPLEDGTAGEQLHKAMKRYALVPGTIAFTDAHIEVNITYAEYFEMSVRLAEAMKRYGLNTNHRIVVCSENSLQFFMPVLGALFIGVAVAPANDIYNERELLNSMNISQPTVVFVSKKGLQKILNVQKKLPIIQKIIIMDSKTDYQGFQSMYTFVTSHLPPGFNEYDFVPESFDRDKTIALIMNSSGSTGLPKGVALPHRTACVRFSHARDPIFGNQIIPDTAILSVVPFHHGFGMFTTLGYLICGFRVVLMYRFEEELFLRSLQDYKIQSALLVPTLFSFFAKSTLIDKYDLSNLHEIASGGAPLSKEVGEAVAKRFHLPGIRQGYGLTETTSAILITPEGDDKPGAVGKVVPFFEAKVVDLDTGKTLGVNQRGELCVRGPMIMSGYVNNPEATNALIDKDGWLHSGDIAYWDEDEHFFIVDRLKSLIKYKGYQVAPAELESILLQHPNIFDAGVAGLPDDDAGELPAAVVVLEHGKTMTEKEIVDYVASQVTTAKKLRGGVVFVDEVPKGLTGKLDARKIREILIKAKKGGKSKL
Test [7] deals with BJ. Briefly: cytotoxicity toward Ras-transformed BJeLR fibroblasts, dose response, cell-based, alamar blue fluorescence, cherrypicked samples (AID 2631).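 Note: confirmatory dose-response assay in RAS-dependent BJ fibroblasts engineered with TERT, LT and ST, with cytotoxicity read by fluorescence.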 It counts as functional. The following applies: Homo sapiens. For orientation: Alamar Blue is a resazurin reagent that responds to reducing activity.
The nature of test [8]: Luminescence Cell-Based Dose Confirmation HTS to Identify Inhibitors of Platelet Dense Granule Release. [Related pubchem assays: 1663 (Primary HTS), 1678 (Summary of Project)]. The class given is functional.
Test [9] addresses Cyclin-dependent kinase 5/CDK5 activator 1 (Homo sapiens, UniProt Q00535). Put plainly: CDK5/p35 kinase inhibitors, dose response, biochemical, cherry-picked samples, set 2 (AID 504545).
Test [10] has as its target Dual specificity tyrosine-phosphorylation-regulated kinase 1A (Rattus norvegicus, UniProt Q63470). It counts as biochemical, Homo sapiens.
The target in test [11] is DNA dC->dU-editing enzyme APOBEC-3G (Homo sapiens, UniProt Q9HC16). Put plainly: APOBEC3G deaminase inhibitors, SAR follow-up, biochemical, fluorescence, single-stranded DNA substrate (AID 602136). The following applies: read-out: IC50_Mean. It counts as functional.
Chain of DNA dC->dU-editing enzyme APOBEC-3G (Q9HC16 whole entry): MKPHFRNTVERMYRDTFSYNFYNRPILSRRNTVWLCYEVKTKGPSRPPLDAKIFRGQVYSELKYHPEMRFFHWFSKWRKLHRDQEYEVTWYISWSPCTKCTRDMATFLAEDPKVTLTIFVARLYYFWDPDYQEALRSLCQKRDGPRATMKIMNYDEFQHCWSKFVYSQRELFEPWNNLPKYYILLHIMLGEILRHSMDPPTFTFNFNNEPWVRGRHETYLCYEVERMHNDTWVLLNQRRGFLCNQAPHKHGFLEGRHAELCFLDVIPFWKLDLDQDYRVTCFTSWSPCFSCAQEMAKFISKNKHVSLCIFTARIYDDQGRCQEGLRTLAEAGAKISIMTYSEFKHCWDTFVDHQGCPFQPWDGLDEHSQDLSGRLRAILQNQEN
For test [12], the target named is DNA dC->dU-editing enzyme APOBEC-3A (Homo sapiens, UniProt P31941). Briefly: SAR analysis of small molecule inhibitors of APOBEC3A DNA Deaminase via a fluorescence-based single-stranded DNA deaminase assay. The class given is functional. The following applies: read-out: IC50_Mean.
Chain of DNA dC->dU-editing enzyme APOBEC-3A (P31941 whole entry): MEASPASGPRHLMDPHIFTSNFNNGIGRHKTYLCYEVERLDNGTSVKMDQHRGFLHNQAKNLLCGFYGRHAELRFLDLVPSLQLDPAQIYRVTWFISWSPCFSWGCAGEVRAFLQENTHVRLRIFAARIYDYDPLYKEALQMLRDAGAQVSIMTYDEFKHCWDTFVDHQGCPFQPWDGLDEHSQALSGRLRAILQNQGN
For test [13], the target named is T1, Sentrin-specific protease 6 (Homo sapiens, UniProt Q9GZR1).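 Note: Luminescence-based dose-response confirmatory assay of SENP6 inhibition, following up an ultra-high-throughput screen.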
T1 sequence (Q9GZR1 whole entry): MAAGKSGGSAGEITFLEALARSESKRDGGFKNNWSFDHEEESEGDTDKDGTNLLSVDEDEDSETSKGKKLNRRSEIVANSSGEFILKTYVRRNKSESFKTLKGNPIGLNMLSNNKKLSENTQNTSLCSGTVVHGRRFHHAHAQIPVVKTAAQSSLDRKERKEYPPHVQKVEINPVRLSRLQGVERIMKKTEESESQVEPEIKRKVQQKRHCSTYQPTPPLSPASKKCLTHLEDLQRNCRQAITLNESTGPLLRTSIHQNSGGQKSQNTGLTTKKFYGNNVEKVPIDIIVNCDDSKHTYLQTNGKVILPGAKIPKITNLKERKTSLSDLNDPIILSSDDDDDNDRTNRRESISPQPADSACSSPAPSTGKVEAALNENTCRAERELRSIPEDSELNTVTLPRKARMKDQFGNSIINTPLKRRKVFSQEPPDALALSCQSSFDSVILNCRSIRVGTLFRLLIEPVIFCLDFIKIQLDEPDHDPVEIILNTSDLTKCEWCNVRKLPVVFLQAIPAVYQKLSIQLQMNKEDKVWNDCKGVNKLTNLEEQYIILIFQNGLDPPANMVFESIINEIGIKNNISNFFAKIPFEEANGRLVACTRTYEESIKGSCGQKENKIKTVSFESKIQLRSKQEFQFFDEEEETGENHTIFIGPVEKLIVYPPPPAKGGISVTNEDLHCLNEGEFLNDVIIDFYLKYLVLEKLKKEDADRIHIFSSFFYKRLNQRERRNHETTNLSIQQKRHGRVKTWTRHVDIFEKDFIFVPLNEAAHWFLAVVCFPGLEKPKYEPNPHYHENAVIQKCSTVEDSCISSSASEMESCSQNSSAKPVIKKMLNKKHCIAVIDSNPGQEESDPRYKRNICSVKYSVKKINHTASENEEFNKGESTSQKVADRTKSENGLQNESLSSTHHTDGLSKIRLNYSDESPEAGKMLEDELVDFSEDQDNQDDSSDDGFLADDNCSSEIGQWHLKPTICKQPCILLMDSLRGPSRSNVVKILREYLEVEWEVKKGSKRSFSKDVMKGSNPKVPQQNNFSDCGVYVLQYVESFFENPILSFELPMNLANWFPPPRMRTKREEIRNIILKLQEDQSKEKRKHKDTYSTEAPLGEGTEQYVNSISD
It counts as functional.

Test [14] addresses T2, Sentrin-specific protease 7 (Homo sapiens, UniProt Q9BQF6).
T2 sequence (Q9BQF6 whole entry): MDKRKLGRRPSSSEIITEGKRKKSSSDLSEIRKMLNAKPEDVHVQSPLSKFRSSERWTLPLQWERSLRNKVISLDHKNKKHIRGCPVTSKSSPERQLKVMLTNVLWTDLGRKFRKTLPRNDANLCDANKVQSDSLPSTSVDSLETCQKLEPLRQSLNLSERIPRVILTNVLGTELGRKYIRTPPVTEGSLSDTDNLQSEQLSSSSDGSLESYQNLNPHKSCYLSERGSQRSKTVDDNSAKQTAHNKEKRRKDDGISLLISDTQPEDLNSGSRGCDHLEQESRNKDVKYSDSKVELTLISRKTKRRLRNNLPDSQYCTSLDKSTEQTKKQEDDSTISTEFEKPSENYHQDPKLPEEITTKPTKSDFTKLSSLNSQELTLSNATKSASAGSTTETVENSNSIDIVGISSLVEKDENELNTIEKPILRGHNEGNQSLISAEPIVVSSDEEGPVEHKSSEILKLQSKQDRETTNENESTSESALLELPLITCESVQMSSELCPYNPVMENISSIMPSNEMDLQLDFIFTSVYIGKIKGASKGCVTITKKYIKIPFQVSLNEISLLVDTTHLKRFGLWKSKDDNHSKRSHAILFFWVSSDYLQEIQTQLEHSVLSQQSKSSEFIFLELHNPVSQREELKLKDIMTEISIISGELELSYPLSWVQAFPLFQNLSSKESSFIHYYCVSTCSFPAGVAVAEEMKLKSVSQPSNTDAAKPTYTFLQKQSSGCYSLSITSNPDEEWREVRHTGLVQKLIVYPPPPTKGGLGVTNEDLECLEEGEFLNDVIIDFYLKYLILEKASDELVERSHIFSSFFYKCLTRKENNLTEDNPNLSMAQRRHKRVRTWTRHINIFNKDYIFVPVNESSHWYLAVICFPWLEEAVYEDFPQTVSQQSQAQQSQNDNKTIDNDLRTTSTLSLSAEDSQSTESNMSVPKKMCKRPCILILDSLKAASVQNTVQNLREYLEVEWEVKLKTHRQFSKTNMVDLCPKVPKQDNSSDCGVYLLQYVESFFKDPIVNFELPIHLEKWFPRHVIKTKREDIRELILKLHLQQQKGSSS
It counts as functional.

For test [15], the target named is T3, Sentrin-specific protease 8 (Homo sapiens, UniProt Q96LD8).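 Note: luminescence read-out of SENP8 inhibition, dose-response confirmation following an ultra-high-throughput screen.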
T3 sequence (Q96LD8 whole entry): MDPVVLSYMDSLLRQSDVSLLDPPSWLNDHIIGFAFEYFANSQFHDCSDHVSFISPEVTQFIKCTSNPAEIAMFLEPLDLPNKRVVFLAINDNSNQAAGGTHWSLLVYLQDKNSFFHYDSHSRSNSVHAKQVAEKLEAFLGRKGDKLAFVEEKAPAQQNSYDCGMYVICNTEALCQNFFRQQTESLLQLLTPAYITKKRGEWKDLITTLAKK
It counts as functional.

The target in a further test is T4, Caspase-3 (Homo sapiens, UniProt P42574).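 Note: Dose-response selectivity test against caspase-3 for candidate inhibitors of sentrin-specific proteases (SENPs).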
T4 sequence (P42574 whole entry): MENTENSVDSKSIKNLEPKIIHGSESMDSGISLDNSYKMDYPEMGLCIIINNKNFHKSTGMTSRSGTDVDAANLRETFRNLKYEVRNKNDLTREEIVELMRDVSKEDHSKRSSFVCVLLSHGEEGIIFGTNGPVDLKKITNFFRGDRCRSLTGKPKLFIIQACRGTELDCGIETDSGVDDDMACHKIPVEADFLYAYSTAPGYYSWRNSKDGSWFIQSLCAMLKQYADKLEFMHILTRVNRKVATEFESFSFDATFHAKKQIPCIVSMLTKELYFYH
The class given is functional.

Test [16] is described as follows: luciferase reporter signal reduction – luminescence, H4-C neuroglioblastoma cells, dose response (AID 2458).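 Note: H4 neuroglioblastoma cells stably carrying a luciferase reporter gene fusion.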 It counts as functional, cell-based. For orientation: In a reporter assay the amount or activity of a reporter protein is the signal.
For test [17], the target named is T5, Nuclear receptor subfamily 0 group B member 1 (Homo sapiens, UniProt P51843).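 Note: HEK293T cells transfected with SF-1 and DAX-1 plus StAR promoter luciferase reporter.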
T5 sequence (P51843 whole entry): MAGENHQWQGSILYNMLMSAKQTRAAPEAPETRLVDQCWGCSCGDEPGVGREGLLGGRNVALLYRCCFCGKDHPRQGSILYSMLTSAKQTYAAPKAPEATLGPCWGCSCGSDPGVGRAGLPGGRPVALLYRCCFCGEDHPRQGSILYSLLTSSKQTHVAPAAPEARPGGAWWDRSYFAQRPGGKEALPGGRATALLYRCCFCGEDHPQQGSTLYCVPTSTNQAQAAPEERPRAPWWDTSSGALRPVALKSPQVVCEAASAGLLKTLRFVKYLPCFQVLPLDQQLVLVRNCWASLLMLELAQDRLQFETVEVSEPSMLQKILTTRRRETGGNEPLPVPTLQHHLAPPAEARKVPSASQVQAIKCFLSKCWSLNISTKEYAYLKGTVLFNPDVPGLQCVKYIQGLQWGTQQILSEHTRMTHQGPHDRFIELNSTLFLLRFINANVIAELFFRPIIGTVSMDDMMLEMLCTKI
It counts as functional, cell-based.

Test [18] is described as follows: inhibitors of firefly luciferase expression or activity, dose response, H4 neuroglioma cells, luminescence (AID 1990). The class given is functional, cell-based.
Test [19] is described as follows: cells. It counts as functional, cell-based.
A short description of test [20]: Luminescence Cell-Based Dose Response HTS to Identify Inhibitors of 5'UTR Stem-Loop Driven Prion Protein mRNA Translation in H4 Neuroglioblastoma Cells. [Related pubchem assays: 1827 (Project Summary), 1813 (Primary HTS)]. The class given is functional.
A short description of test [21]: cells. It counts as functional, cell-based. This is another data set of the same source.
Test [22] in a line: inhibitors of SNCA 5'UTR-driven reporter translation, confirmation, H4 neuroglioma cells, luminescence (AID 1988). It counts as functional, cell-based.
Another test concerns the target Paired box protein Pax-8 (Homo sapiens, UniProt Q06710). Put plainly: inhibitors of PAX8-driven TPO luciferase reporter, dose response, RMG-I cells, cherry-pick (AID 687027).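 Note: luciferase reporter driven by Pax8 target thyroperoxidase promoter measured by SteadyGlo luminescence.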 It counts as functional, cell-based.
Test [23] in a line: inhibitors of SNCA 5'UTR-driven translation, confirmation, luminescence, H4 neuroglioblastoma cells, dose confirmation (AID 2454).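 Note: H4 neuroglioblastoma cells carrying an alpha-synuclein 5'UTR luciferase reporter; potency for inhibition of the luciferase signal.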 The class given is functional, cell-based.

The text below walks through data of ChEMBL document CHEMBL1201862, “PubChem BioAssay data set” (2004).

As usually defined, the EC50 is the concentration that produces a half-maximal response. As usually defined, the AC50 is the concentration at which the activity in the assay is half-maximal.

Active and inactive are the calls of the source.

Chain of Paired box protein Pax-8 (Q06710 whole entry): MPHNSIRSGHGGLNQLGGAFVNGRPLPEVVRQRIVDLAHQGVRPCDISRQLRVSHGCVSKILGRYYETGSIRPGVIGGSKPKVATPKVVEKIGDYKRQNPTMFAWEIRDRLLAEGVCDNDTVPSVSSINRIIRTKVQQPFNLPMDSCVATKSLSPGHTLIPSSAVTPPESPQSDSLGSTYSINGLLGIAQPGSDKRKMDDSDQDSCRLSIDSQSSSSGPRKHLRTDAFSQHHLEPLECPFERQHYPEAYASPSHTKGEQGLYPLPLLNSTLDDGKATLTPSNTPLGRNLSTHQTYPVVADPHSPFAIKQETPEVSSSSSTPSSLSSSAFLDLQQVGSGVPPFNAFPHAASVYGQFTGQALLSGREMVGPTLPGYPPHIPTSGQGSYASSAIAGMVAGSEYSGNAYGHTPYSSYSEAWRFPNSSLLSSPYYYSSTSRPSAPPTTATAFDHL
Chain of Cyclin-dependent kinase 5/CDK5 activator 1 (Q00535 whole entry): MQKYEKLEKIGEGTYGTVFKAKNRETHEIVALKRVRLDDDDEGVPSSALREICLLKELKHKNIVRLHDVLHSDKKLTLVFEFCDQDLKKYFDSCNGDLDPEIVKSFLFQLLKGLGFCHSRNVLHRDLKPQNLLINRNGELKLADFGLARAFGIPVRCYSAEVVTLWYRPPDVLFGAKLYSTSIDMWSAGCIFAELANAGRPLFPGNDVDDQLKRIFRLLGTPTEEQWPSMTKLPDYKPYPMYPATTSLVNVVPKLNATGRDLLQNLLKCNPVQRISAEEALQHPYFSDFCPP
Chain of Cyclin-dependent kinase 5/CDK5 activator 1 (Q15078 whole entry, further chain): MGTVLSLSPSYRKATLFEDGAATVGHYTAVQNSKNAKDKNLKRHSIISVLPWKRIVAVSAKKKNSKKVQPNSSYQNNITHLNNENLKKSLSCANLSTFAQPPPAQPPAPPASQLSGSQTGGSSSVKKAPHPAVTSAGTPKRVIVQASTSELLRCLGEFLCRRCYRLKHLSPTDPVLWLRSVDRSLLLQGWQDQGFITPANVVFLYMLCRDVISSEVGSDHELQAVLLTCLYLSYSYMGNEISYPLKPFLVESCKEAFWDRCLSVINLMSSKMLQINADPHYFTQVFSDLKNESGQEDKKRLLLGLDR

Regarding `O=C(c1ccc2c3n(nc2c1)-c1ccccc1CO3)N1CCOCC1`, the EC50 was 17 µM (active) in the test on BJ [1]; 3.76 µM (active) in the test on BJ [2]; 5.29 µM (active) in [3]; 4.57 µM (inconclusive) with BJ [4]; 1.55 µM (active) in test [6]; > 133 µM (inactive) with BJ [7]. Moreover, the EC50 in test [8] was 10.8 µM (active). Further, the concentration at half-maximal activity (AC50) in test [5] is 17.7 µM (active); in test [9] it was 12.3 µM (active); in [10] it was 12.6 µM (active).

As to `Cn1c(SCC(=O)c2ccccc2)nnc1-c1sc2ccccc2c1Cl`, the IC50 in test [11] and in test [12] was > 99 µM (inactive) in each case.

Take `COc1ccc2nc(NC(=O)c3cccc(OCc4c(C)noc4C)c3)sc2c1`: the IC50 is 4.78 µM (active) in test [13], 3.67 µM (active) in [14], > 100 µM (inactive) in [15] and > 100 µM (inactive) on Caspase-3.

With `O=C(c1cc([N+](=O)[O-])ccc1N1CCOCC1)N1CCN(c2ccccc2)CC1`, the EC50 in test [16] was 0.501 µM (active); in the test with BJ [1], 0.338 µM (inconclusive); in [18], 0.681 µM (active); in “cells [19]” it was 0.959 µM (active); in test [20] it was < 0.1 µM (active); in the test with BJ [2] it was 1.2 µM (inconclusive). For the same molecule, the EC50 in test [3] was 0.633 µM (inconclusive); in the test with BJ [4] it was 0.309 µM (active); in test [22], < 0.1 µM (active); in the test on BJ [7], < 0.104 µM (active); in [23], 0.738 µM (active). For the same molecule, the IC50 (in test [17]; in the test “cells [21]”) was > 67.5 µM (inactive) each time. Moreover, the AC50 on Paired box protein Pax-8 was 3.76 µM (active).

As to `c1cnc2nc(SCc3cn4ccccc4n3)[nH]c2c1`, the IC50 in test [11] and in test [12] was > 99 µM (inactive) each time.

For `Cc1cccc(/C=N\N=C\c2cccc(C)c2)c1`, the IC50 in test [13] was 27.6 µM (active); in [14], 7.09 µM (active); in test [15] it was 47 µM (active); on Caspase-3 it was 24.6 µM (active).
